Counter-ions that a name gives are not always drawn.
Experiments:
Assay type in all cases: in vivo, human
[1] = tested on: severe refractory migraine with and without aura; experiment: Case Study 3: severe refractory migraine with and without aura
Method: The patient was a person with a twenty-year history of severe refractory migraine with and without aura. […] The patient was started on topiramate at 50 mg/day increasing to 100 mg in the morning and 100 mg in the evening, in combination with INDERAL at 160 mg/day. […] After about 6 months, the patient was prescribed EFFEXOR XR (vanlafaxine HCl) at 37 mg/day, an increased topiramate dose of 125 mg in the morning and 150 mg in the evening, and 160 mg/day INDERAL.

[2] = tested on: persistent daily headache with migraine features; experiment: Case Study 1: persistent daily headache with migraine features; conditions: one patient; for Response of persistent daily headache to earlier therapy: before topiramate
Description: The patient was a person with persistent daily headache with migraine features.

[3] = tested on: refractory migraine (migraine without aura); experiment: Case Study 2: refractory migraine without aura; conditions: for Response of refractory migraine to earlier therapy: CORGARD in combination with PROZAC or CELEXA or trazodone
Method: The patient was a person with a lifelong history of refractory migraine (migraine without aura), averaging 8 migraines per month. […] The patient was started on topiramate at 25 mg/day, with dosage increasing to 75 mg/day. Simultaneously, the beta-blocker, CORGARD dosage was decreased to 20 mg/day, with CELEXA at 20 mg/day also continued.

`CC(C)NCC(O)COc1cccc2ccccc12.Cl` (stereo not shown) [INDERAL, propranolol HCl] was tested, and the “Response of severe refractory migraine” value ([1]; INDERAL at 120 mg/day in combination with tricyclic antidepressants) was “Only modest response” and the “Response of persistent daily headache to earlier therapy” value (“Response of persistent daily headache” below) [2] was “failed to respond”.
In the case of `CC(C)(C)NCC(O)COc1cccc2c1CC(O)C(O)C2` (stereo not shown) [CORGARD, nadolol], the “Response of refractory migraine to earlier therapy” value (shortened to “Response of refractory migraine”) [3] is reported as “no response”.
`CNCCC(Oc1ccc(C(F)(F)F)cc1)c1ccccc1` (stereo not shown) [PROZAC, fluoxetine HCl] was tested, and the “Response of refractory migraine” value [3] was “no response”.
In the case of `CCCC(CCC)C(=O)O` [DEPAKOTE, valproic acid], the “Response of severe refractory migraine” value ([1]; earlier therapy) is reported as “modest symptomatic response” and the “Tolerability, reason for discontinuation” value ([1]; earlier therapy) is reported as “discontinued due to weight gain”.
In the case of `CNS(=O)(=O)Cc1ccc2[nH]cc(CCN(C)C)c2c1` [sumatriptan], the “Response of severe refractory migraine” value ([1]; repeated frequent use) is reported as “symptomatic response”.
For `CN(C)CCCC1(c2ccc(F)cc2)OCc2cc(C#N)ccc21` (stereo not shown) [CELEXA, citalopram HCl], the “Response of refractory migraine” value [3] was “no response”.
With `O=c1n(CCCN2CCN(c3cccc(Cl)c3)CC2)nc2ccccn12` [trazodone] the “Response of refractory migraine” value [3] was “no response”.
For `CN1CCC(=C2c3ccccc3C=Cc3ccccc32)CC1` [PERIACTIN, cyproheptadine HCl], the “Response of persistent daily headache” value [2] was “failed to respond”.
`CNS(=O)(=O)CCc1ccc2[nH]cc(C3CCN(C)CC3)c2c1` [naratriptan] was tested, and the “Response of severe headaches” value [2] was “did however respond”.
With `Cc1cc2nc3c(=O)[nH]c(=O)nc-3n(C[C@H](O)[C@H](O)[C@H](O)CO)c2cc1C` [riboflavin] the Effect of supplementation ([3]; 400 mg/day) was “no improvement”.
For `CNCCC=C1c2ccccc2CCc2ccccc21` [nortriptyline], the “Response of persistent daily headache” value [2] was “failed to respond”.

From patent publication US20030225002A1, “Co-therapy for the treatment of migraine comprising anticonvulsant derivatives and anti-migraine agents” (priority 2002, published 2003)
